Source: ChEMBL document CHEMBL1143353, “Pyrazolo[1,5-a]-1,3,5-triazine as a purine bioisostere: access to potent cyclin-dependent kinase inhibitor (R)-roscovitine analogue” (J Med Chem, 2009)

Tests used:
HEK293 = assay: Antiproliferative activity against human HEK293 cells after 48 hrs by MTS reduction assay; type: cell-based; details: HEK293, 48 h
[1] = target: Cyclin-dependent kinase 5/CDK5 activator 1 (Homo sapiens, UniProt Q00535)
Description: Inhibition of human recombinant CDK5/p25 expressed in Escherichia coli

SH-SY5Y = assay: Antiproliferative activity against human SH-SY5Y cells after 48 hrs by MTS reduction assay; type: functional, cell-based
[2] = Inhibition of starfish oocytes CDK1/cyclin B; set-up: species or system Marthasterias glacialis; details: oocyte
[3] = target: Cyclin-dependent kinase 2 (Homo sapiens, UniProt P24941); assay: Inhibition of human recombinant CDK2/cyclin A expressed in baculovirus-infected insect cells
CDK9/cyclin T1 = CDK9/cyclin T1 (Homo sapiens, UniProt P50750); assay: Inhibition of human recombinant CDK9/cyclin T expressed in baculovirus-infected insect cells
[4] = target: Cyclin-dependent kinase 7/ cyclin H (Homo sapiens, UniProt P50613); assay: Inhibition of human recombinant CDK7/cyclin H expressed in baculovirus-infected insect cells
Chain of Cyclin-dependent kinase 7/ cyclin H (P51946 whole entry): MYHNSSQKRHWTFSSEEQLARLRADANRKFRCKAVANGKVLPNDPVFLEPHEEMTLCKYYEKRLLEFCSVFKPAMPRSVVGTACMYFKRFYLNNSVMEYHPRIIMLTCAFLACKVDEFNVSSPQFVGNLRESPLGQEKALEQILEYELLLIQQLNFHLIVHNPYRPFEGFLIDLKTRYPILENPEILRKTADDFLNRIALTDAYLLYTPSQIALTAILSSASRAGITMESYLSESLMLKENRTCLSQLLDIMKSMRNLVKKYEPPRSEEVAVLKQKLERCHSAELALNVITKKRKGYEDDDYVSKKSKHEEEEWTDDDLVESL
Chain of Cyclin-dependent kinase 7/ cyclin H (P50613 whole entry): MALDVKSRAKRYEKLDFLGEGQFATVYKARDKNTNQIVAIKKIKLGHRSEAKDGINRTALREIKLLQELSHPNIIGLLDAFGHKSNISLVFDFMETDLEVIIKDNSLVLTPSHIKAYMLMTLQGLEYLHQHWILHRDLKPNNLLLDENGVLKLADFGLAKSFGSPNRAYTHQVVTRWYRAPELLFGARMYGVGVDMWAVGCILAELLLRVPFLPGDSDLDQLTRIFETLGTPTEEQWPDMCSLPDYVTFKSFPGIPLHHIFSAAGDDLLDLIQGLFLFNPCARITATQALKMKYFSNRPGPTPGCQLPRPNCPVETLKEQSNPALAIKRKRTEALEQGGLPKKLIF

Chain of Cyclin-dependent kinase 5/CDK5 activator 1 (Q00535 whole entry): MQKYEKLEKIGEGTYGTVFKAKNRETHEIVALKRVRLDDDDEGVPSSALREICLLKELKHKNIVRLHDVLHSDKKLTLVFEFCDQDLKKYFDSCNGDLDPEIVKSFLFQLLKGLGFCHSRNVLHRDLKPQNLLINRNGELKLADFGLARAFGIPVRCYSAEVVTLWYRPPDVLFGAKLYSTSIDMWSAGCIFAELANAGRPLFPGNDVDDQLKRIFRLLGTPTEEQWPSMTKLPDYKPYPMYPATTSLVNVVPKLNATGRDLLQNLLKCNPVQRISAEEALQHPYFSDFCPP
Chain of Cyclin-dependent kinase 5/CDK5 activator 1 (Q15078 whole entry, further chain): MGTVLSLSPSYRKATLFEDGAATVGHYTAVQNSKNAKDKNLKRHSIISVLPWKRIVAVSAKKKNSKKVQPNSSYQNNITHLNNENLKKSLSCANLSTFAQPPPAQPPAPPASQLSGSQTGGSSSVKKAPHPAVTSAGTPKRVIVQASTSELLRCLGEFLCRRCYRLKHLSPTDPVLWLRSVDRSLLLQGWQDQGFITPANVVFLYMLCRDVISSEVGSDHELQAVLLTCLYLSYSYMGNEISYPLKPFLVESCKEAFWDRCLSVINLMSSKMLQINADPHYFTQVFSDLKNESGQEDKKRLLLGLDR
Chain of CDK9/cyclin T1 (O60563 whole entry): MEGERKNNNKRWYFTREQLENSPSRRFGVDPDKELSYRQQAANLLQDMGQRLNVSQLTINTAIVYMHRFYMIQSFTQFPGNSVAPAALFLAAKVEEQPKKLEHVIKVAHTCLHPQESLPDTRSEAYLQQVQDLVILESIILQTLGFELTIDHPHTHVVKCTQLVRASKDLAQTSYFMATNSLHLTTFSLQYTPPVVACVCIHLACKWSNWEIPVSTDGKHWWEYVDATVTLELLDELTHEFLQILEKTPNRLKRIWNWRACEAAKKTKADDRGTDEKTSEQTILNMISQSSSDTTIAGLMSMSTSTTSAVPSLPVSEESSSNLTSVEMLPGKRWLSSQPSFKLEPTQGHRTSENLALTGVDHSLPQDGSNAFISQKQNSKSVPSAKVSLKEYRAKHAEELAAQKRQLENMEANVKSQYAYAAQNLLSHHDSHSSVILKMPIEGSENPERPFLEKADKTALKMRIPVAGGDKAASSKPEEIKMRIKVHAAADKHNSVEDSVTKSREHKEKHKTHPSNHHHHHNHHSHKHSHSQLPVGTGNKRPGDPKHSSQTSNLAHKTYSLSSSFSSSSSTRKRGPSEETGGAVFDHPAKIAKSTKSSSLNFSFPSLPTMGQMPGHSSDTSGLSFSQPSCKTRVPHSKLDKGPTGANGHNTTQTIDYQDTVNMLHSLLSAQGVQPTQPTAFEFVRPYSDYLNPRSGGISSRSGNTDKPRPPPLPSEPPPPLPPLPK
Chain of CDK9/cyclin T1 (P50750 whole entry): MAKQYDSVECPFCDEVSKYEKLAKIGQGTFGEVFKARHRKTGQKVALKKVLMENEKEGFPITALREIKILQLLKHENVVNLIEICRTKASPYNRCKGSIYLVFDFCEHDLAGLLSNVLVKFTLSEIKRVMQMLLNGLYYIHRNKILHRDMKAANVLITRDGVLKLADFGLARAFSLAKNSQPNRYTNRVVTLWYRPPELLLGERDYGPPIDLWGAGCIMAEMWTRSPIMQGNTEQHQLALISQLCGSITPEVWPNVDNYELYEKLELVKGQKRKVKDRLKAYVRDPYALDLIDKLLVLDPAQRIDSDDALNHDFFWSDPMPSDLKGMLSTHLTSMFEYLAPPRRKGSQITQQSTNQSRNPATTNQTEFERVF

Row | SMILES | IC50 (HEK293) [nM] | IC50 [1] [nM] | IC50 (SH-SY5Y) [nM] | IC50 [2] [nM] | IC50 [3] [nM] | IC50 (CDK9/cyclin T1) [nM] | IC50 [4] [nM]
1 | CC[C@@H](CO)Nc1nc(NCc2ccccc2)n2ncc(C(C)C)c2n1 | 7200 | 130 | 2000 |  |  |  | 
2 | CC[C@H](CO)Nc1nc(NCc2ccccc2)c2ncc(C(C)C)n2n1 | 26800 | 320 | 15400 | 400 | 220 | 200 | 600
